Results as given in PubChem BioAssay AID248 (DTP/NCI, 2004).
Where “and” joins values, the source holds several entries; their conditions need not be identical. Identical values can stand only once. Inconclusive results and toxic doses are left out. No stated cut-off is given here; in the data, active means T/C of 150% or more; inactive means T/C below 125%.

Test system: L1210 leukemia ip in BDF1 mice, survival T/C
Experiment: NCI In Vivo Anticancer Drug Screen. Data for tumor model L1210 Leukemia (intraperitoneal) in B6D2F1 (BDF1) mice
Details: endpoint: mean survival time, higher = longer survival
Outline: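 Tumor was transplanted into mice, which were then dosed with test compound or vehicle alone. Survival was recorded for each group, and the treated figure was expressed relative to the control figure.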

[1] = dose: 100.0 mg/kg/injection, schedule: Q04DX003 (ip), vehicle: Klucel (hydroxypropylcellulose) (HPC)
[2] = dose: 200.0 mg/kg/injection, schedule: Q04DX003 (ip), vehicle: Klucel (hydroxypropylcellulose) (HPC)
[3] = dose: 400.0 mg/kg/injection, schedule: Q04DX003 (ip), vehicle: Klucel (hydroxypropylcellulose) (HPC)
[4] = dose: 100.0 mg/kg/injection, schedule: Q01DX001 (ip), vehicle: saline
[5] = dose: 200.0 mg/kg/injection, schedule: Q01DX001 (ip), vehicle: saline
[6] = dose: 400.0 mg/kg/injection, schedule: Q01DX001 (ip), vehicle: saline
[7] = dose: 100.0 mg/kg/injection, schedule: Q01DX009 (ip), vehicle: saline with Tween-80
[8] = dose: 100.0 mg/kg/injection, schedule: Q04DX002 (ip), vehicle: Klucel (hydroxypropylcellulose) (HPC)
[9] = dose: 200.0 mg/kg/injection, schedule: Q01DX009 (ip), vehicle: saline with Tween-80
[10] = dose: 200.0 mg/kg/injection, schedule: Q04DX002 (ip), vehicle: Klucel (hydroxypropylcellulose) (HPC)
[11] = dose: 400.0 mg/kg/injection, schedule: Q01DX009 (ip), vehicle: saline with Tween-80
[12] = dose: 400.0 mg/kg/injection, schedule: Q04DX002 (ip), vehicle: Klucel (hydroxypropylcellulose) (HPC)
[13] = dose: 100.0 mg/kg/injection, schedule: Q01DX001 (ip), vehicle: Klucel (hydroxypropylcellulose) (HPC)
[14] = dose: 200.0 mg/kg/injection, schedule: Q01DX001 (ip), vehicle: Klucel (hydroxypropylcellulose) (HPC)
[15] = dose: 400.0 mg/kg/injection, schedule: Q01DX001 (ip), vehicle: Klucel (hydroxypropylcellulose) (HPC)
[16] = dose: 50.0 mg/kg/injection, schedule: Q01DX009 (ip), vehicle: saline
[17] = dose: 100.0 mg/kg/injection, schedule: Q01DX009 (ip), vehicle: saline
[18] = dose: 100.0 mg/kg/injection, schedule: Q01DX009 (ip), vehicle: Klucel (hydroxypropylcellulose) (HPC)
[19] = dose: 100.0 mg/kg/injection, schedule: Q04DX003 (ip), vehicle: saline with Tween-80
[20] = dose: 200.0 mg/kg/injection, schedule: Q04DX003 (ip), vehicle: saline with Tween-80

Measured: T/C

COC(=O)C1C2CC3c4[nH]c5cc(OC)ccc5c4CCN3CC2CC(OC)C1OC (configuration not stated)
inactive: dose: 0.78 mg/kg/injection, schedule: Q03HX024 (ip), vehicle: saline 104 % of control | dose: 1.56 mg/kg/injection, schedule: Q03HX024 (ip), vehicle: saline 96 % of control | dose: 2.0 mg/kg/injection, schedule: Q01DX009 (ip), vehicle: saline 93 % of control | dose: 3.12 mg/kg/injection, schedule: Q03HX024 (ip), vehicle: saline 100 % of control | dose: 4.0 mg/kg/injection, schedule: Q01DX009 (ip), vehicle: saline 94 % of control | dose: 6.25 mg/kg/injection, schedule: Q03HX024 (ip), vehicle: saline 110 % of control | dose: 6.25 mg/kg/injection, schedule: Q04DX003 (ip), vehicle: saline 95 % of control | dose: 8.0 mg/kg/injection, schedule: Q01DX009 (ip), vehicle: saline 88 % of control | dose: 12.5 mg/kg/injection, schedule: Q04DX003 (ip), vehicle: saline 97 % of control | dose: 16.0 mg/kg/injection, schedule: Q01DX009 (ip), vehicle: saline 89 % of control | dose: 18.75 mg/kg/injection, schedule: Q01DX001 (ip), vehicle: saline 102 % of control | dose: 25.0 mg/kg/injection, schedule: Q04DX003 (ip), vehicle: saline 102 % of control | dose: 32.0 mg/kg/injection, schedule: Q01DX009 (ip), vehicle: saline 96 % of control | dose: 37.5 mg/kg/injection, schedule: Q01DX001 (ip), vehicle: saline 112 % of control | dose: 50.0 mg/kg/injection, schedule: Q04DX003 (ip), vehicle: saline 105 % of control and 122 % of control | dose: 75.0 mg/kg/injection, schedule: Q01DX001 (ip), vehicle: saline 112 % of control

CCCCCCCCCCCCCCOc1ccc(C(=O)CC(=O)OC)cc1
inactive: [1] 90 % of control | [2] 98 % of control | [3] 90 % of control

COC1C(COS(=O)(=O)c2ccc(C)cc2)OC2OC(C)(C)OC21 (configuration not stated)
inactive: dose: 100.0 mg/kg/injection, schedule: Q04DX003 (ip), vehicle: other 92 % of control | dose: 200.0 mg/kg/injection, schedule: Q04DX003 (ip), vehicle: other 97 % of control | dose: 400.0 mg/kg/injection, schedule: Q04DX003 (ip), vehicle: other 101 % of control

OC(COc1ccc(Cl)cc1)CN1CCN(c2ccc(Cl)cc2)CC1 (configuration not stated)
inactive: [4] 97 % of control | [5] 95 % of control | [6] 95 % of control

Cc1ccc(S(=O)(=O)N2CCN(C)CC2)cc1
inactive: [4] 103 % of control | [5] 97 % of control | [6] 97 % of control

NC1=NC(Cc2ccccc2)N(c2ccc(Cl)cc2)C(N)=N1 (configuration not stated)
inactive: dose: 14.0 mg/kg/injection, schedule: Q01DX009 (ip), vehicle: steriod suspending solution 98 % of control | dose: 24.0 mg/kg/injection, schedule: Q01DX009 (ip), vehicle: steriod suspending solution 98 % of control | dose: 39.0 mg/kg/injection, schedule: Q01DX009 (ip), vehicle: steriod suspending solution 98 % of control | dose: 65.0 mg/kg/injection, schedule: Q01DX009 (ip), vehicle: steriod suspending solution 96 % of control

CC(Oc1cc(Cl)c(Cl)cc1Cl)C(=O)OCc1ccco1 (configuration not stated)
inactive: [7] 110 % of control | [8] 100 % of control | [9] 100 % of control | [10] 103 % of control | [11] 104 % of control | [12] 100 % of control

COc1ccc(/C=C2/N=C(C)OC2=O)cc1
inactive: [13] 92 % of control | [14] 98 % of control | [15] 102 % of control

CC1C2CC3C(OC(=O)C13C)C2I (configuration not stated)
inactive: [4] 110 % of control | [5] 96 % of control | [6] 113 % of control

O=C(c1ccccc1)c1ccco1
inactive: [16] 102 % of control | [17] 91 % of control | dose: 200.0 mg/kg/injection, schedule: Q01DX009 (ip), vehicle: saline 93 % of control

Cc1cc(O)cc(C)c1C1=NCC(C)S1 (configuration not stated)
inactive: [8] 104 % of control | [10] 90 % of control | [12] 90 % of control

CCn1c(C)nc2cc(S(=O)(=O)C(F)(F)C(F)Cl)ccc21 (configuration not stated)
inactive: [13] 100 % of control | [18] 94 % of control | [14] 97 % of control | dose: 200.0 mg/kg/injection, schedule: Q01DX009 (ip), vehicle: Klucel (hydroxypropylcellulose) (HPC) 101 % of control | [15] 97 % of control | dose: 400.0 mg/kg/injection, schedule: Q01DX009 (ip), vehicle: Klucel (hydroxypropylcellulose) (HPC) 106 % of control

CC(NC(=O)NCCCl)C1CC1 (configuration not stated)
inactive: [13] 106 % of control | [1] 97 % of control | [14] 103 % of control | [2] 100 % of control | [15] 103 % of control | [3] 90 % of control

C=C(Cl)CN1C(=O)c2ccccc2C1=O
inactive: [8] 93 % of control | [10] 93 % of control | [12] 101 % of control

O=C(O)C1CCCCC1C(=O)Nc1ccccc1C(F)(F)F (configuration not stated)
inactive: [7] 98 % of control | [19] 105 % of control | [9] 90 % of control | [20] 100 % of control | [11] 94 % of control | dose: 400.0 mg/kg/injection, schedule: Q04DX003 (ip), vehicle: saline with Tween-80 100 % of control

CCOc1ccc2nc(Cl)sc2c1
inactive: dose: 50.0 mg/kg/injection, schedule: Q01DX009 (ip), vehicle: Klucel (hydroxypropylcellulose) (HPC) 92 % of control | dose: 75.0 mg/kg/injection, schedule: Q04DX003 (ip), vehicle: Klucel (hydroxypropylcellulose) (HPC) 93 % of control | [18] 94 % of control | dose: 150.0 mg/kg/injection, schedule: Q04DX003 (ip), vehicle: Klucel (hydroxypropylcellulose) (HPC) 96 % of control

O=[N+]([O-])c1ccc(OCCO)c([N+](=O)[O-])c1
inactive: dose: 50.0 mg/kg/injection, schedule: Q04DX003 (ip), vehicle: saline with Tween-80 104 % of control | [19] 104 % of control | [20] 103 % of control

O=S1(=O)CCCCC1=C(c1ccccc1)c1ccccc1
inactive: dose: 100.0 mg/kg/injection, schedule: Q04DX002 (ip), vehicle: saline with Tween-80 89 % of control | dose: 200.0 mg/kg/injection, schedule: Q04DX002 (ip), vehicle: saline with Tween-80 89 % of control

CN1CCC(OC(=O)C(C)(O)C#Cc2ccccc2)CC1 (configuration not stated)
inactive: dose: 50.0 mg/kg/injection, schedule: Q01DX001 (ip), vehicle: Klucel (hydroxypropylcellulose) (HPC) 102 % of control | [13] 97 % of control | [14] 100 % of control

CC(=O)C1=C(O)C(c2ccccc2)c2ccccc21 (configuration not stated)
inactive: [13] 108 % of control | [1] 100 % of control | [14] 103 % of control | [2] 103 % of control | [15] 100 % of control | [3] 95 % of control

O=c1[nH]c(=O)c2cccnc2[nH]1
inactive: dose: 3.12 mg/kg/injection, schedule: Q01DX009 (ip), vehicle: saline 109 % of control | dose: 6.25 mg/kg/injection, schedule: Q01DX009 (ip), vehicle: saline 107 % of control | dose: 12.5 mg/kg/injection, schedule: Q01DX009 (ip), vehicle: saline 115 % of control | dose: 25.0 mg/kg/injection, schedule: Q01DX001 (ip), vehicle: saline 100 % of control | dose: 25.0 mg/kg/injection, schedule: Q01DX009 (ip), vehicle: saline 108 % of control | dose: 50.0 mg/kg/injection, schedule: Q01DX001 (ip), vehicle: saline 105 % of control | [16] 100 % of control | [4] 98 % of control and 100 % of control | [17] 94 % of control | [5] 98 % of control and 100 % of control

O=C(Cc1cccc2ccccc12)OCCBr
inactive: dose: 222.0 mg/kg/injection, schedule: Q01DX Z (ip), vehicle: methylcellulose (MC) 100 % of control | dose: 333.0 mg/kg/injection, schedule: Q01DX Z (ip), vehicle: methylcellulose (MC) 100 % of control | dose: 500.0 mg/kg/injection, schedule: Q01DX Z (ip), vehicle: methylcellulose (MC) 96 % of control
